# Experimental data from patent US8389468B2, “Approach to the treatment of compartment syndrome” (Lantmannen AS-Faktor AB, priority 2006, dated 2013).
# Key:
# [1] = test system: intervertebral discs; test: Injured or loaded intervertebral discs; format: in vivo, rodents, rabbits and pigs
# Description: The intervertebral discs, which separate the vertebral bodies in the spine, adjust their dimensions according to the actual load many times a day. The water content in the avascular nucleus pulposus and the annulus fibrosus in a disc is dependant on the supply of fluid, ions, nutrients and oxygen from adjacent ligaments and from the end plates of the vertebrae (Cf. Holm et al., 2007). Vast products from an avascular disc must pass through the same obstacles prior to reaching vascular systems. Therefore, rodents, rabbits and pigs have been assessed regarding effects of AF protein and of AF peptides with regard to effects on the intervertebral discs when loaded and unloaded. […] It is thus disclosed that the AF compounds are beneficial in reducing the swelling and tissue damage at trauma or deformation and/or excessive load on intervertebral discs.
# [2] = test system: implanted tumours; test: Interstitial fluid pressure (IFP) in implanted tumours; format: in vivo, rodents
# Method: Tumours, malignant as well as benign, have been implanted subcutaneously and intramuscularly in rodents. Every second animal, having tumours with a diameter ranging from 10 mm to 15 mm, was treated with AF proteins or AF-16, systemically with the aid of subcutaneously implanted Alzet osmotic minipumps, by injections of AF-16 at or into the tumour. In another experiment, the AF-16 peptide was delivered from an implanted Alzet 2001 pump directly onto and/or into the tumour with a fine silicone tube. Additional rats had the AF-protein induced by their feed ort by having AF in egg yolk. For comparison, an equal number of rats received the same treatment but with the vehicle. The interstitial fluid pressure (IFP) in the tumour as well as at its adjacent regions was determined with the aid of a Samba glass fibre pressure sensor (diameter 0.4 mm), with and without a protecting tubing, as well as with equipment enabling determination of the interstitial fluid pressure by the “wick” technique. […] The IFP in the adjacent connective tissue was ranging from 0 to 4 mm Hg, but could occasionally be negative. Tumours in the range of 10-15 mm, and treated with AF-16 as described above, got a reduction of the IFP, which turned reduced to usually 12 mm Hg or less.
# [3] = test system: flotillin-1 and aquaporin 1 immunoreactivities in the choroid plexus; test: Immunohistochemistry of flotillin-1 and aquaporin 1 in choroid plexus of HSV-1 infected rats; format: in vivo, rat; conditions: hardly demonstrable with vehicle
# Method: Therefore, rats were infected by instillation in their right nostril of 25 μL of a solution of the herpes simplex virus type 1 (HSV-1; strain 2762, batch 041028; 1.7×10^7 PFU/mL). Half of the animals received 10 min later 25 μL (1, 10 or 25 pg) of AF-16 in their right nostril, and had thereafter the same dose of AF-16 instilled every morning at 8 AM and every night at 6 PM until the experiment was terminated on day 14. The other half of the group of HSV-1 infected rats received 25 μL of the vehicle, PBS, at the same time schedule. The animals were several times daily closely watched for signs of behavioral dysfunction or general sickness. If so, the animals were sacrificed. The FIG. 3 is illustrating the survival rates for the animals, all being infected with HSV-1. […] In contrast, the HSV-1 infected rats, receiving just the vehicle (n=15), died to a large extent and only 10% were still surviving at the end of the test period, day 14 (FIG. 3). All of the vehicle treated, infected rats developed signs of neurological dysfunctions. […] It ought to be stressed that the extent and severity of the damage were depending on the duration of the exposure and to the level of elevated ICP as well as to the survival time. […]
# [4] = test system: liver, spleen, kidney and thyroid; test: Mechanical injury of liver, spleen, kidney and thyroid; format: in vivo, rat; conditions: compression and abrasion, vs vehicle
# Description: The liver, spleen, kidney and thyroid were similarly mechanically injured by compression and exposed to abrasion. […] Further the prevalence of ascites and related types of excessive extracellular fluid at elevated pressure was reduced. Thus AF-16 reduced the extent and severity of the CS in parenchymatous organs and tissues.
# [5] = test system: sciatic nerve; test: Sciatic nerve crush, intraneural pressure; format: in vivo, rat
# Description: Peripheral and autonomic nerves are all delimited by an endoneurium, an perineurium and outermost an epineurium. Multiple nerve fascicles form a nerve (Cf. Hansson et al., 1987). Tendons and some of the ligaments in a body are delimited by a tender collagen membrane-like structure, the synovial sheath. The inner border layer of the latter connect the tendon with its synovial vagina, which enable sliding at minimal friction. The periphery of the latter structure is enclosed by a fibrous, membrane-like layer, the fibrous vagina. The enclosing paratendinium is in some locations hold in position and receiving nutrition by mesotendons and by vinculae (Cf. Hansson et al., 1980). […] Such a procedure resulted not only in impaired nerve function and structure but also in impaired blood and lymph circulation, and caused swelling of the sciatic nerve, the development of oedema, which included adjacent and enveloping structures, The IFP turned elevated, as assessed by the insertion of a Samba fibre optic pressure measuring probe in the affected tissue. […] The pressure in the perineurium was determined to become elevated in a day in those treated with just the vehicle, in agreement with the macroscopically recognized swelling and local oedema, i.e. having developed a CS. […]
sequence,measurement,setting,value
VCHSKTRSNPENNVGL [AF-16],stiffness of intervertebral connections and deformation induced,"[1]; after supramaximal loads or trauma, vs vehicle",closer to normal
same,damage to nucleus pulposus (light microscopy),[1]; in vivo,less damage to the nucleus pulposus
same,swelling and inflammatory reactions of injured intervertebral discs,[1]; in vivo,reduced the swelling and the inflammatory reactions
same,inflammatory reaction in tumour (light microscopy),[2]; in vivo,reduced the intensity and extent of the inflammatory reaction
same,interstitial fluid pressure (IFP) in the tumour,"[2]; tumours 10-15 mm, vehicle in excess of 12",≤ 12 mm Hg
same,aquaporin 1 immunoreactivity in the choroid plexus,[3],readily demonstrable
same,flotillin-1 immunoreactivity in the choroid plexus,[3],readily demonstrable
same,oedema and swelling of injured organs,[4],reduce the oedema and swelling
same,intraneural pressure,"[5]; crushed sciatic nerve, high dose from time of injury",slightly elevated or close to that measured in a normal nerve
same,"inflammation, oedema and tissue distortion (light microscopy)",[5]; injured sciatic nerves,reduced the inflammation and the oedema and the tissue distortion
